Data on three compounds can be found in patent publication US20100076091A1, “COMPOSITION AND METHOD FOR SUPPRESSING LIPOOXIDATION OF ERYTHROCYTE” (TOHOKU UNIVERSITY, priority 2007, published 2010).

For data set [1], the system named is peroxidized phospholipids in erythrocytes. Nature of the data set: Erythrocyte peroxidized phospholipid level (PCOOH, PEOOH) after oral ingestion, by CL-HPLC. Conditions: within 4 weeks after the start of ingestion, lutein 9.7 mg/day; 6 normal subjects. It counts as in vivo, human. The procedure:
Packed cells (washed erythrocytes, 1.5 mL) prepared in a manner similar to that in 1-1 of Example 1 were added to a 50-mL screw cap glass centrifugation tube and then 1.5 mL of a 0.1 mM EDTA-2Na aqueous solution was added, followed by gentle agitation. The solution was allowed to stand in ice for 15 minutes and then 15 mL of isopropanol was added, followed by gentle agitation. The solution was allowed to stand for 30 minutes in ice and then 15 mL of chloroform was added. After vortexing, the solution was allowed to stand for 30 minutes in ice and then centrifuged (1000 g, 10 minutes, 4° C.). […] Solvent removal was carried out under nitrogen and then the total lipid level was measured by a gravimetric method. […]
Peroxidized phospholipids (phosphatidyl choline hydroperoxide (PCOOH) and phosphatidylethanolamine hydroperoxide (PEOOH)) in erythrocytes were measured by chemiluminescence-high performance liquid chromatography (CL-HPLC). […] After separation of PCOOH and PEOOH from other lipid components by HPLC, PCOOH and PEOOH are reacted with a luminescence reagent and then hydroperoxide-group-derived chemiluminescence is detected and quantitatively determined. Specifically, the above obtained chloroform/methanol (2:1, v/v) solution (40 μL) of total erythrocyte lipids was subjected to CL-HPLC and then peroxidized phospholipids were quantitatively determined. […]

For data set [2] the following is noted: human, in vivo. The procedure: Blood (12 mL) of a subject after the subject had fasted for 12 hours was collected using EDTA. Blood was centrifuged (1000 g, 10 minutes, 4° C.), so that 6 mL of erythrocytes was obtained. To wash erythrocytes, 5-fold volume (30 mL) of physiological phosphate buffer (pH 8.0) was added and then centrifugation was carried out (2300 g, 10 minutes, 4° C.), thereby removing supernatants. This procedure was repeated 3 times, so that 4 mL of packed cells (washed erythrocytes) was obtained. • 1-2. Extraction of Carotenoid from Erythrocytes and Quantitative Determination Thereof
Two (2) mL of water was added to 2 mL of packed cells (washed erythrocytes) for hemolysis of erythrocytes. […] Fifty (50) μL of the solution was subjected to the following UV-HPLC analysis, so that erythrocyte carotenoid was quantitatively determined. […]
To examine whether the ingested xanthophyll would be actually transferred to erythrocytes so as to suppress accumulation of peroxidized phospholipids, lutein that exists at the highest concentration among human erythrocyte xanthophyll members was administered to 6 normal subjects (3 male subjects and 3 female subjects) for 4 weeks. […] Erythrocytes were separated from the thus obtained blood and then the concentration of erythrocyte lutein and the peroxidized phospholipid level were measured. […]

A further data set deals with erythrocytes. Kind of data set: Search for ingredients capable of preventing lipoperoxidation of erythrocytes.

With `CC1=C[C@H](O)CC(C)(C)[C@H]1/C=C/C(C)=C/C=C/C(C)=C/C=C/C=C(C)/C=C/C=C(C)/C=C/C1=C(C)C[C@@H](O)CC1(C)C` [lutein], in data set [1], the “peroxidized phospholipid level in erythrocytes compared with the level before the start of ingestion” value is on record as “significantly decreased”.

For `CC1=C(/C=C/C(C)=C/C=C/C(C)=C/C=C/C=C(C)/C=C/C=C(C)/C=C/C2=C(C)C[C@@H](O)CC2(C)C)C(C)(C)C[C@H](O)C1` [zeaxanthin], the “concentration of erythrocyte zeaxanthin, average” value in data set [2] is listed as 52 pmol/g hemoglobin.

`Cc1c(C)c2c(c(C)c1O)CC[C@@](C)(CCC[C@H](C)CCC[C@H](C)CCCC(C)C)O2` [α-tocopherol]: in the data set on erythrocytes, the “prevention of lipoperoxidation of erythrocytes” value is reported as “has no such effects”.
